Measured values from paper PMC9466626, “Discovery of new 1H-pyrazolo[3,4-d]pyrimidine derivatives as anticancer agents targeting EGFR^WT and EGFR^T790M” (Journal of Enzyme Inhibition and Medicinal Chemistry, 2022).
“And” between values parts separate entries of the source, which are not always exact repeats. Identical values can stand only once. Like-named read-outs stand apart in the source and are kept apart here.

Tests used:
A549 = experiment: In vitro anti-proliferative MTT assay, A549; format: cell-based, human; conditions: for IC50: Homo sapiens, A549
Experimental: These two cell lines were selected in this test due to the overexpression of EGFR in human lung and colon cancer cell lines[48]^,[49]. The tested cells were reported to have a high expression level of EGFR. […]
(§1) 1.1. In vitro antiproliferative activities
The in vitro antiproliferative activities of all the synthesized compounds against two human […]
evaluated quantitatively as described in the literature, using MTT assay protocol . two […]
proliferative activity was assessed quantitatively as follows.
(§2) Human cancer cell lines were dropped in 96 -well plates at a density of 3-8 × 10^3 cells/well.
Next, the wells were incubated for 12 h in a 5% CO 2 incubator at 37 °C. Then, for each well, the growth medium was exchanged with 0.1 ml of fresh medium containing graded concentrations of the test compounds to be or equal DMSO and incubated for two days. Then 10 μl MTT solution ([…]) was added to each well, and the cells were incubated for additional 4 h. The crystals of MTT-formazan were dissolved in 100 μl of DMSO; the absorbance of each well was measured at 490 nm using an automatic ELISA reader system (TECAN, CHE). The IC 50 values were calculated using the nonlinear regression fitting models (Graph Pad, Prism Version 5). The data represented the mean of three independent experiments in triplicate and were expressed as means ± SD. The […]
(§3) The results were expressed as growth inhibitory concentration (IC50) values and […]

HCT-116 = experiment: In vitro anti-proliferative MTT assay, HCT-116; format: cell-based, human
Experimental: The cytotoxic activities of the synthesised compounds were assessed against two human cancer cell lines (lung, A549) and (colon HCT-116) using an MTT assay. These two cell lines were selected in this test due to the overexpression of EGFR in human lung and colon cancer cell lines[48]^,[49]. The tested cells were reported to have a high expression level of EGFR.
In vitro cytotoxicity was carried out for the synthesised compounds against A549, HCT-116, and WI-38 cell lines using the MTT assay protocol[52–55] as described in Supplementary data. […]
as §1
The in vitro antiproliferative activities of all the synthesized compounds against two human tumor cell lines namely, (lung, A549) and (colon HCT-116) and one normal cell line (WI-38) were evaluated quantitatively as described in the literature, using MTT assay protocol . two commercially available drugs (erlotinib) were used in this test as positive controls. The anti-proliferative activity was assessed quantitatively as follows.
as §2
Next, the wells were incubated for 12 h in a 5% CO 2 incubator at 37 °C. Then, for each well, the growth medium was exchanged with 0.1 ml of fresh medium containing graded concentrations of the test compounds to be or equal DMSO and incubated for two days. Then 10 μl MTT solution ([…]) was added to each well, and the cells were incubated for additional 4 h. The crystals of MTT-formazan were dissolved in 100 μl of DMSO; the absorbance of each well was measured at 490 nm using an automatic ELISA reader system (TECAN, CHE). The IC 50 values were calculated using the nonlinear regression fitting models (Graph Pad, Prism Version 5). The data represented the mean of three independent experiments in triplicate and were expressed as means ± SD. The IC50 value was defined as the concentration at which 50% of the cells could survive.
as §3

EGFR^WT = target: T1, EGFR^WT (Homo sapiens, UniProt P00533); experiment: EGFR^WT kinase inhibitory assay (HTRF); format: biochemical
T1 construct: purchased Sigma
Experimental: (§4) In vitro EGFR inhibitory activity was assessed using a Homogeneous time-resolved fluorescence (HTRF) assay[56] as described in Supplementary data.
(§5) 4.1.1. EGFRWT and EGFRT790M kinase inhibitory assay […]
(§6) against four cancer cell lines were further examined for their inhibitory activities against both […]
(§7) Homogeneous time resolved fluorescence (HTRF) assay was applied in this test. EGFRWT, EGFRT790M (Sigma). firstly, the EGFRWT and/or EGFRT790M and their substrates were incubated with the tested compounds in enzymatic buffer for 5 min. […]
(§8) the enzymatic reaction. The assay was conducted for 30 min at room temperature. The reaction was stopped by addition of detection reagents which contain EDTA. The detection step continued […]
(§9) experiments were performed for each concentration. […]

EGFR^T790M = target: T2, EGFR^T790M (Homo sapiens, UniProt P00533, T790M); experiment: EGFR^T790M kinase inhibitory assay (HTRF); format: biochemical
T2 construct: purchased Sigma
Experimental: as §4, §5, §6, §7, §8, §9

A549 cells = experiment: Annexin V-FITC apoptosis assay; format: cell-based, human
Experimental: The effect of compound 12b on cell apoptosis was investigated as described in Supplementary data[59]. […]
4.1.3. Annexin V-FITC apoptosis assay.
To detect the apoptosis induced by compound 12b, a549 cells were seeded and incubated overnight and then treated with compound 12b at concentrations of 8.21 µM µM for 48 h. DMSO was chosen as the negative control. After that, the cells were collected and washed with PBS two successive times. The cells were exposed to centrifugation. Apoptosis detection kit (BD Biosciences, San Jose, CA) was used in this test. According to the manufacturer's protocol the cells were stained by Annexin V-FITC and propidium iodide (PI) in the binding buffer for 20min at room temperature in the dark. Using a flow cytometer, Annexin V-FITC and PI binding were analyzed. flowjo software was used to analyze the frequencies in all quadrants.

BAX = experiment: qRT-PCR gene expression of BAX in A549 cells; format: cell-based, human; conditions: A549, 48 h, control set to 1
Experimental: (§10) The effect of compound 12b on the expression of BAX and Bcl‐2 was determined using qRT-PCR as described in Supplementary data[60–62].

Bcl-2 = experiment: qRT-PCR gene expression of Bcl-2 in A549 cells; format: cell-based, human; conditions: A549, 48 h
Experimental: as §10

BAX/Bcl-2 ratio = BAX/Bcl-2 ratio from qRT-PCR in A549 cells; format: cell-based, human; conditions: A549, 48 h, control set to 1
Experimental: as §10

WI-38 = experiment: In vitro cytotoxicity against normal cells (MTT), WI-38
Experimental: Next, the wells were incubated for 12 h in a 5% CO 2 incubator at 37 °C. Then, for each well, the growth medium was exchanged with 0.1 ml of fresh medium containing graded concentrations of the test compounds to be or equal DMSO and incubated for two days. Then 10 μl MTT solution (5 μg/ml) was added to each well, and the cells were incubated for additional 4 h. The crystals of MTT-formazan were dissolved in 100 μl of DMSO; the absorbance of each well was measured at 490 nm using an automatic ELISA reader system (TECAN, CHE). The IC 50 values were calculated using the nonlinear regression fitting models (Graph Pad, Prism Version 5). The data represented the mean of three independent experiments in triplicate and were expressed as means ± SD.

[1] = supplement graph, axis Log (nM)
[2] = A549, 48 h, mean ± SEM, listed as 12 b

T2 sequence (P00533 25-1210 T790M): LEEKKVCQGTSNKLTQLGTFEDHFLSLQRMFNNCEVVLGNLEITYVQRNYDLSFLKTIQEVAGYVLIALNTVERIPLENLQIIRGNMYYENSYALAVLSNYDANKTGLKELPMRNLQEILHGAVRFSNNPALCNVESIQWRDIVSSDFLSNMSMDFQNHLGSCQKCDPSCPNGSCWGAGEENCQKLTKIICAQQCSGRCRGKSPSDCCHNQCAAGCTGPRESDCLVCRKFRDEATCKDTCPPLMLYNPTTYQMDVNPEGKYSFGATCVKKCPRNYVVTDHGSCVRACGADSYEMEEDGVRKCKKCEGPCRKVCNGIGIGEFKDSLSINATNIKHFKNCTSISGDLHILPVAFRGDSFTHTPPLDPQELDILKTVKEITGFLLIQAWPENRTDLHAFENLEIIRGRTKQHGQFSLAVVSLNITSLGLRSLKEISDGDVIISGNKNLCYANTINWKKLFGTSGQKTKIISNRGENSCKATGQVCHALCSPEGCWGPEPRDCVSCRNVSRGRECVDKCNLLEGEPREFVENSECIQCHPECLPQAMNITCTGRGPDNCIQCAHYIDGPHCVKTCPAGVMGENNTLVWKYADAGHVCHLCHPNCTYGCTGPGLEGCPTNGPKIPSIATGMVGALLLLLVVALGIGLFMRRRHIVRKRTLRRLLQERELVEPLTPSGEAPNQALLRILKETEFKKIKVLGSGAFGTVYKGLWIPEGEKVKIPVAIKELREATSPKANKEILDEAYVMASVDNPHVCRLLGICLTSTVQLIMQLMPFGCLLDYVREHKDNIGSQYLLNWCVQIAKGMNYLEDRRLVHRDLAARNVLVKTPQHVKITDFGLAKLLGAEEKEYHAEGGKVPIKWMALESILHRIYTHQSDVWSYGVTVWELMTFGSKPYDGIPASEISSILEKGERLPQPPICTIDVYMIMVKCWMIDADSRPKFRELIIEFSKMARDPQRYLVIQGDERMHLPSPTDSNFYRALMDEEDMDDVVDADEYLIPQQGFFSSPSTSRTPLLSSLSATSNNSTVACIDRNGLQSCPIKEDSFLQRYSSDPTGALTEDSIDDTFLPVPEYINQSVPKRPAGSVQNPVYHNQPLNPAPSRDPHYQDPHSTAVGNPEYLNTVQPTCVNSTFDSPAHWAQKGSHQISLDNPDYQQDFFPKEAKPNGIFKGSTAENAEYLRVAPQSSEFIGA
T1 sequence (P00533 25-1210): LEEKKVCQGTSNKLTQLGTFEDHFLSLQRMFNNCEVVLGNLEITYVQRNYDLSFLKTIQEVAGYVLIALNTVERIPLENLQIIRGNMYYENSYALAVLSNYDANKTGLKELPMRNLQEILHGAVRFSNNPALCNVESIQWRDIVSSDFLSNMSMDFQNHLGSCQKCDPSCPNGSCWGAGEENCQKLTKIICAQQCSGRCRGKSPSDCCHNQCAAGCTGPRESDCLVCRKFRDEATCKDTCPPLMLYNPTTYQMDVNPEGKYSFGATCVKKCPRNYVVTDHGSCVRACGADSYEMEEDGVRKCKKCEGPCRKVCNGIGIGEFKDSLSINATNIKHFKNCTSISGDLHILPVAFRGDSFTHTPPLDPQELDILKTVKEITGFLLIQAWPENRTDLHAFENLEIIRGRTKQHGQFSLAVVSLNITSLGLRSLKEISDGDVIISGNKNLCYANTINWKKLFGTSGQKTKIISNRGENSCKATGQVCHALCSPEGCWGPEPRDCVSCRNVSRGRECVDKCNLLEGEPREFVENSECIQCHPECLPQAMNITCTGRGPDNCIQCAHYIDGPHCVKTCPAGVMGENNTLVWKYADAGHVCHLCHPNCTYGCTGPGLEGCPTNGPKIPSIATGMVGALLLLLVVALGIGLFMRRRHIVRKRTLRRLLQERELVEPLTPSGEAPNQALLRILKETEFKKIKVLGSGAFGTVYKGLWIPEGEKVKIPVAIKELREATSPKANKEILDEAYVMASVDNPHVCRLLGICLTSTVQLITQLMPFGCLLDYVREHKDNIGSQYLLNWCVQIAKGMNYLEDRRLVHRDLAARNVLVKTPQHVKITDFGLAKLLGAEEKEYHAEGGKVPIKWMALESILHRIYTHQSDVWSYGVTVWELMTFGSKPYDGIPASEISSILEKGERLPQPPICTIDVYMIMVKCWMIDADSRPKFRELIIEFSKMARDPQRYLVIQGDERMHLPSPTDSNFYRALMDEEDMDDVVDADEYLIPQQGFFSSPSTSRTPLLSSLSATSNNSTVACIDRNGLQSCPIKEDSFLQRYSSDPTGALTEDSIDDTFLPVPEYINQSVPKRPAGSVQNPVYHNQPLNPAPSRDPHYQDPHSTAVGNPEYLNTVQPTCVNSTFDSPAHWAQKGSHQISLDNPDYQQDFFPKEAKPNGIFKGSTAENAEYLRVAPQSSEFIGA

CC(=NNc1nc(Nc2ccccc2)nc2c1cnn2-c1ccccc1)c1ccc(Cl)cc1 [Compound 12b, 4–(2-(1–(4-Chlorophenyl)ethylidene)hydrazinyl)-N,1-diphenyl-1H-pyrazolo[3,4-d]pyrimidin-6-amine]
IC50 (A549; MTT, mean of three experiments, read-out: In vitro cytotoxicity IC50, A549): 8210 nM
IC50 (A549; supplement IC50 graph, unit inferred, read-out: IC50 (best-fit value of graph), A549): 8220 nM
HillSlope (best-fit value), A549 (A549; supplement IC50 graph): -0.3430
LogIC50 (best-fit value), A549 (A549; supplement IC50 graph): 0.9146
IC50 (HCT-116; Homo sapiens, HCT-116, MTT, mean of three experiments, read-out: In vitro cytotoxicity IC50, HCT-116): 19600 nM
HillSlope (best-fit value), HCT-116 (HCT-116; supplement IC50 graph): -0.3805
LogIC50 (best-fit value), HCT-116 (HCT-116; supplement IC50 graph): 1.291
IC50 (EGFR^WT; HTRF, mean of three experiments, read-out: EGFR^WT IC50): 16 nM
HillSlope (best-fit value), EGFR inhibition (EGFR^WT; supplement graph): -0.3524
LogIC50 (best-fit value), EGFR inhibition (EGFR^WT; [1]): 1.193
IC50 (EGFR^WT; supplement graph, axis Log (nM), read-out: IC50 (best-fit value of graph), EGFR inhibition): 15.6 nM
fold more potent than erlotinib against EGFR^T790M (EGFR^T790M): 2.4 fold
IC50 (EGFR^T790M; HTRF, mean of three experiments, read-out: EGFR^T790M IC50): 236 nM
HillSlope (best-fit value), EGFRT790M inhibition (EGFR^T790M; supplement graph): -0.3418
LogIC50 (best-fit value), EGFRT790M inhibition (EGFR^T790M; [1]): 2.372
IC50 (EGFR^T790M; supplement graph, axis Log (nM), read-out: IC50 (best-fit value of graph), EGFRT790M inhibition): 235 nM
Apoptosis Early (Right Bottom) (A549 cells; A549, 48 h, mean ± SEM): 67.69%
Apoptosis Late (Right Top) (A549 cells; A549, 48 h, mean ± SEM): 0.64%
Necrosis (Left Top) (A549 cells; A549, 48 h, mean ± SEM): 0.10 ± 0.02%
Viable (Left Bottom) (A549 cells; A549, 48 h, mean ± SEM): 31.57 ± 4.64%
Apoptosis Early (Right Bottom) (A549 cells; [2]): 67.69 ± 4.86 %
Apoptosis Late (Right Top) (A549 cells; [2]): 0.64 ± 0.30%
fold decrease in the ratio of viable cells (A549 cells; vs untreated A549, 48 h): 3 fold
fold increase in the early apoptosis ratio (A549 cells; vs untreated A549, 48 h): 11 fold
fold increase in the late apoptosis ratio (A549 cells; vs untreated A549, 48 h): 1.5 fold
Gene expression (Fold Change) BAX (BAX): 3.3 Fold Change and 3.33 ± 0.37 Fold Change
Gene expression (Fold Change) Bcl-2 (Bcl-2; control set to 1): 0.40 ± 0.08 Fold Change
fold decrease in Bcl-2 gene expression (Bcl-2; vs untreated): 2.5 fold
Gene expression (Fold Change) BAX/Bcl-2 ratio (BAX/Bcl-2 ratio): 8.8 Fold Change and 8.80 ± 1.41 Fold Change
Selectivity index (SI) A549 (WI-38; cytotoxicity against WI-38 / cytotoxicity against A549): 4.77
Selectivity index (SI) HCT-116 (WI-38; cytotoxicity against WI-38 / cytotoxicity against HCT-116): 2.00
HillSlope (best-fit value), WI-38 (WI-38; supplement graph): -0.4504
LogIC50 (best-fit value), WI-38 (WI-38; supplement graph): 1.593
